Earlier results, collected in PubChem BioAssay AID1259410 (Chemical Carcinogenesis Research Information System (CCRIS), 2018).

Tested on: rodent tumor promotion studies, tumor incidence
Assay: CCRIS tumor promotion studies

C[C@]12CC[C@H]3[C@@H](CCC4=CC(=O)CC[C@@]43C)[C@@H]1CC[C@@H]2O
outcome (Carcinogen: DIETHYLNITROSAMINE, 55-18-5, Doses [Carcinogen]: 2.5 UG/G BW IN SALINE ONCE, Doses [Promoter]: 0, 0.5-1 MG IN PELLET IMPLANTED 1/MONTH FOR 30 WK BEGINNING 30 D POST CARCINOGEN TREATMENT. DOSING BEGAN SAME DAY OF BIL, Route [Carcinogen]: INTRAPERITIONEAL, Route [Promoter]: SUBCUTANEOUS, Species: MOUSE, Strain/Sex: B6C3F1/FEMALE): liver: tumor

CC(=O)Oc1ccccc1C(=O)O
outcome (Carcinogen: N-(4-(5-NITRO-2-FURYL)-2-THIAZOLYL)FORMAMIDE, 24554-26-5, Doses [Carcinogen]: 0.2% IN DIET FOR 12 WK (TOTAL DOSE: 2.7 G), Doses [Promoter]: 0.5% IN DIET (TOTAL DOSE: 45.9 G) BEGINNING 2 D PRIOR TO SIMULTANEOUS ADMINISTRATION WITH CARCINOGEN FOR 12 WK THEN CONT, Route [Carcinogen]: ORAL, Route [Promoter]: ORAL, Species: RAT, Strain/Sex: F344/MALE): urinary bladder: transitional cell carcinoma
outcome (Carcinogen: N-(4-(5-NITRO-2-FURYL)-2-THIAZOLYL)FORMAMIDE, 24554-26-5, Doses [Carcinogen]: 0.2% IN DIET FOR 12 WK (TOTAL DOSE: 3 G), Doses [Promoter]: 0.5% IN DIET (TOTAL DOSE: 39.9 G) BEGINNING 7 D POST LAST CARCINOGEN DOSE AND CONTINUING FOR DURATION OF STUDY (STUDY DU, Route [Carcinogen]: ORAL, Route [Promoter]: ORAL, Species: RAT, Strain/Sex: F344/MALE): urinary bladder: transitional cell carcinoma

C[C@H](N)[C@H](O)c1cccc(O)c1
outcome (Carcinogen: N-METHYL-N'-NITRO-N-NITROSOGUANADINE, 70-25-7, Doses [Carcinogen]: 25 UG/ML IN DRINKING WATER FOR 20 WK, Doses [Promoter]: 0, 5 MG/KG BW IN OLIVE OIL 1/2 D BEGINNING POST CARCINOGEN TREATMENT (STUDY DURATION: 52 WK), Route [Carcinogen]: ORAL, Route [Promoter]: SUBCUTANEOUS, Species: RAT, Strain/Sex: WISTAR/MALE): stomach: adenocarcinoma

O=NO
outcome (Carcinogen: 1,2-DIMETHYLHYDRAZINE [540-73-8], Doses [Carcinogen]: 8 MG/KG, Doses [Promoter]: 50, 500 MG, Route [Promoter]: INJECTION, Species: MOUSE, Strain/Sex: (C57B1 X CBA)/MALE): liver: hepatocarcinoma, hepatic hemangioendothelioma; kidney: renal adenoma; inc
outcome (Carcinogen: Diethyl nitrosamine (DEN), 55-18-5 and dimethylhydrazine (DMH), 30260-66-3, Carcinogen: Diethyl nitrosamine (DEN), 55-18-5 and dimethylhydrazine (DMH), 30260-66-3, Doses [Carcinogen]: DEN, 200 mg/kg once at -3 days, DMH, 40 mg/kg 4 injections between day 0 and wk 2, Doses [Promoter]: 0, 0.1, 0.2% in drinking water from week 2 to 29, study duration 29 wk, Doses [Promoter]: 0, 0.1, 0.2% in drinking water from week 2 to 29, study duration 29 wk, Route [Carcinogen]: Intraperitoneal (DEN) and subcutaneous (DMH), Route [Promoter]: Oral, Species: Rat, Strain/Sex: F344/Du Crj (20/group)): liver: hepatocellular adenoma and carcinoma. colon adenoma and carcinoma. incide
outcome (Carcinogen: N-METHYL-N'-NITRO-N-NITROSOGUANIDINE, 70-25-7, Doses [Carcinogen]: 150 MG/KG BW IN DMSO:WATER (1:1) ONCE, Doses [Promoter]: 0, 0.3% IN DRINKING WATER BEGINNING 1 WK POST CARCINOGEN DOSE (STUDY DURATION: 52 WK), Route [Carcinogen]: GAVAGE, Route [Promoter]: ORAL, Species: RAT, Strain/Sex: F344/MALE): forestomach: papilloma, squamous cell carcinoma
outcome (Carcinogen: N-bis(2-hydroxypropyl)nitrosamine (DHPN) (53609-64-6), Doses [Carcinogen]: 0.1% (w/v) in drinking water for 3 wk, then surgery for acid reflux esophagitis, study duration 34 wk, Doses [Promoter]: 0 (basal diet), 0.2% sodium nitrite, 1% ascorbic acid with 0.2% sodium nitrite, study duration 32 wk after first promote, Doses [Promoter]: 0 (basal diet), 0.2% sodium nitrite, 1% ascorbic acid with 0.2% sodium nitrite, study duration 32 wk after first promote, Route [Carcinogen]: Oral, Route [Promoter]: Oral, Species: Rat, Strain/Sex: F344/Male (24/group)): esophagus (p1-p4): papilloma; significant only for combined treatment in p4 segm
outcome (Carcinogen: N-methyl-N'-nitro-N-nitrosoguanidine (70-25-7), Doses [Carcinogen]: 0.01% in drinking water for 10 wk for initiation of glandular stomach tumors, 100 mg/kg intragastrically after 16 hr st, Doses [Promoter]: 0.05%, 0.1%, or 0.2% in drinking water from wk 11 to end of study in combination with 0.1% or 1.0% vitamin C in diet (, Route [Carcinogen]: Oral and Intragastric, Route [Promoter]: Oral, Species: Rat, Strain/Sex: F344/Male (15/15)/(14/15)(15/15)(15/15)(15/15)(15/15)(14/15)): forestomach: papilloma, squamous cell carcinoma increase in incidence and/or sev
outcome (Carcinogen: URETHANE, 51-79-6, Doses [Carcinogen]: 0.5 MG/G BW 1/WK FOR 2 WK, Doses [Promoter]: 0, 50 MG/L IN DRINKING WATER FOR THE DURATION OF STUDY BEGINNING 4 WK PRIOR TO CARCINOGEN TREATMENT (STUDY DURATION: 210, Route [Carcinogen]: INTRAPERITONEAL, Route [Promoter]: ORAL, Species: MOUSE, Strain/Sex: A/SNELL/FEMALE): lung: adenoma
outcome (Carcinogen: URETHANE, 51-79-6, Doses [Carcinogen]: 0.5 MG/G BW 1/WK FOR 2 WK, Doses [Promoter]: 0, 50 MG/L IN DRINKING WATER FOR THE DURATION OF STUDY BEGINNING 4 WK PRIOR TO CARCINOGEN TREATMENT (STUDY DURATION: 210, Route [Carcinogen]: INTRAPERITONEAL, Route [Promoter]: ORAL, Species: MOUSE, Strain/Sex: C57BL X CBA/ FEMALE): lung: adenoma
outcome (Carcinogen: URETHANE, 51-79-6, Doses [Carcinogen]: 0.5 MG/G BW/WK FOR 2 WK, Doses [Promoter]: 0, 50, 500 MG/L IN DRINKING WATER FOR THE DURATION OF STUDY BEGINNING 4 WK PRIOR TO CARCINOGEN TREATMENT (STUDY DURATION, Doses [Promoter]: 0, 50, 500 MG/L IN DRINKING WATER FOR THE DURATION OF STUDY BEGINNING 4 WK PRIOR TO CARCINOGEN TREATMENT (STUDY DURATION, Route [Carcinogen]: INTRAPERITONEAL, Route [Promoter]: ORAL, Species: MOUSE, Strain/Sex: A/SNELL): lung: adenoma
outcome (Carcinogen: URETHANE, 51-79-6, Doses [Carcinogen]: 0.5 MG/G BW/WK FOR 2 WK, Doses [Promoter]: 0, 50, 500 MG/L IN DRINKING WATER FOR THE DURATION OF STUDY BEGINNING 4 WK PRIOR TO CARCINOGEN TREATMENT (STUDY DURATION, Doses [Promoter]: 0, 50, 500 MG/L IN DRINKING WATER FOR THE DURATION OF STUDY BEGINNING 4 WK PRIOR TO CARCINOGEN TREATMENT (STUDY DURATION, Route [Carcinogen]: INTRAPERITONEAL, Route [Promoter]: ORAL, Species: MOUSE, Strain/Sex: C57BLXCBA): lung: adenoma

Cc1cccc(O)c1
outcome (Carcinogen: 7,12-DIMETHYLBENZ(A)ANTHRACENE, Doses [Carcinogen]: TOP, Route [Carcinogen]: DERMAL, Route [Promoter]: DERMAL, Species: MOUSE, Strain/Sex: FEMALE): integumentary system (skin)

CCCCCCCCCC(=O)O[C@@H]1[C@@H](C)[C@@]2(O)[C@@H](C=C(CO)C[C@]3(O)C(=O)C(C)=C[C@@H]23)[C@@H]2C(C)(C)[C@]12OC(=O)CCCCCCCCC
outcome (Carcinogen: 7,12-DIMETHYLBENZ(A)ANTHRACENE, Doses [Carcinogen]: TOP, Route [Carcinogen]: DERMAL, Route [Promoter]: DERMAL, Species: MOUSE, Strain/Sex: MALE,FEMALE): forestomach

CC(=O)[C@H]1[C@H](C#N)C[C@H]2[C@@H]3CC=C4C[C@@H](O)CC[C@]4(C)[C@H]3CC[C@@]21C
outcome (Carcinogen: DIISOPROPANOLNITROSAMINE [53609-64-6], Doses [Carcinogen]: SINGLE DOSE OF 2.5 G/KG BW, Doses [Promoter]: 1000 PPM IN DIET BEGINNING 1 WK AFTER DIPN TREATMENT FOR 19 WKS (STUDY DURATION: 20 WKS), Route [Carcinogen]: SUBCUTANEOUS INJECTION, Route [Promoter]: DIET, Species: RAT, Strain/Sex: SPRAGUE-DAWLEY/MALE): thyroid: cystic adenoma, follicular adenoma, and follicular carcinoma

Oc1c(Cl)c(Cl)c(O)c(Cl)c1Cl
outcome (Carcinogen: 7,12-Dimethylbenzanthracene, 57-97-6, Doses [Carcinogen]: 100 ug in 100 ul acetone once at 7 wks of age, Doses [Promoter]: 100, 500 ug in 100 ul acetone 1 wk after carcinogen, 2 times a wk for 20 or 30 wks, Route [Carcinogen]: Dermal, Route [Promoter]: Dermal, Species: Mouse, Strain/Sex: CD-1/Female): skin: tumors (dihydrolipoic acid significantly inhibited tumor incidence and mul

CC(=O)O[C@]1(C(C)=O)CC[C@H]2[C@@H]3C[C@H](C)C4=CC(=O)CC[C@]4(C)[C@H]3CC[C@@]21C
outcome (Carcinogen: 7,12-DIMETHYLBENZ[A]ANTHRACENE, 57-97-6, Doses [Carcinogen]: 1 MG IN 0.1 ML COTTONSEED OIL 1/WK AT WKS 9,10,12 AND 13 OF AGE, Doses [Promoter]: 0, 20 MG EACH IN 2 PELLETS IMPLANTED IN THE INTERSCAPULAR AREA AT 6 WK OF AGE (STUDY DURATION: 15 MO), Route [Carcinogen]: GAVAGE, Route [Promoter]: SUBCUTANEOUS IMPLANT, Species: MOUSE, Strain/Sex: CD2F1/FEMALE): mammary gland: tumor
outcome (Carcinogen: METHYLNITROSOUREA, 684-93-5, Doses [Carcinogen]: 50 MG/KG BW ONCE, Doses [Promoter]: 0, 40 MG DEPOT EVERY 3 MO BEGINNING 1 WK POST CARCINOGEN DOSE (STUDY DURATION: 9 MO), Route [Carcinogen]: INTRAPERITONEAL, Route [Promoter]: SUBCUTANEOUS, Species: MOUSE, Strain/Sex: BALB/FEMALE): mammary gland: carcinoma
outcome (Carcinogen: METHYLNITROSOUREA, 684-93-5, Doses [Carcinogen]: 50 MG/KG BW ONCE, Doses [Promoter]: 0, 40 MG DEPOT EVERY 3 MO BEGINNING 1 WK PRIOR TO CARCINOGEN DOSE (STUDY DURATION: 9 MO), Route [Carcinogen]: INTRAPERITONEAL, Route [Promoter]: SUBCUTANEOUS, Species: MOUSE, Strain/Sex: BALB/FEMALE): mammary gland: carcinoma

CC(=O)OC/C=C(C)/C=C/C=C(C)/C=C/C1=C(C)CCCC1(C)C
outcome (Carcinogen: 3'-METHYL-4-DIMETHYLAMINOAZOBENZENE, 55-80-1, Doses [Carcinogen]: 0.06% IN DIET FOR 7 WK, Doses [Promoter]: 0, 6.25, 12.5, 25 MG 1/5 D FOR 10 WK ADMINISTERED 3 WK POST CARCINOGEN (STUDY DURATION: 25 WK), Doses [Promoter]: 0, 6.25, 12.5, 25 MG 1/5 D FOR 10 WK ADMINISTERED 3 WK POST CARCINOGEN (STUDY DURATION: 25 WK), Route [Carcinogen]: ORAL, Route [Promoter]: INTRAPERITONEAL, Species: RAT, Strain/Sex: DONRYU/MALE): liver: hepatocellular carcinoma
